Reference: patent US20180010188A1, “METHOD FOR DETECTING NONSENSE-MEDIATED RNA DECAY” (The Regents of the University of California, priority 2016, published 2018)

How the values were obtained:
[1] = tested on: NMD and non-NMD isoforms of Srsf11, Ptbp2, Tra2b, Hnrnpl and Psd-95 (cellular NMD activity); assay: RT-qPCR of endogenous NMD and non-NMD isoforms to monitor cellular NMD activity; type: cell-based, mouse
From the text: In our method, we measure the individual abundance of NMD-sensitive isoforms and that of their non-NMD counterparts via quantitative real-time PCR (qPCR). The NMD isoforms are first examined for differential expression between a treatment and a control condition. An increase in a NMD isoform may be due to NMD inhibition, transcriptional activation or a change in alternative splicing favoring the NMD isoform. These three scenarios can be distinguished by examining the expression of the non-NMD counterparts. Genuine NMD regulation, transcriptional activation and alternative splicing regulation would lead to no change, upregulation and down-regulation of the NMD-insensitive isoforms, respectively (FIG. 6A).
One technical difficulty of our method is designing RT-qPCR primers specific to the cassette exon-skipping isoform, whose entire sequence is contained in the inclusion isoform. To specifically detect an inclusion isoform, we designed a primer entirely annealing to the cassette exon (exon B in FIG. 1A). For the exclusion isoform, junction primers annealing to the exon-skipping junction appear to be the only choices. This can be either a reverse primer (FIG. 1A) with its 5′ portion matching the downstream constitutive exon (exon C) and its 3′ portion matching the upstream constitutive exon (exon A) or a forward primer (not shown) with its 5′ and 3′ portions matching the upstream and downstream exons, respectively. The challenge is herein illustrated with reverse primers but also applies to forward primers. Many exon-skipping junction primers are able to amplify the inclusion isoforms (FIGS. 7A-D). The longer the 3′ portion of the junction primer annealing to the upstream constitutive exon, the easier the primer amplifies the inclusion transcripts (FIG. 7B). Some exon-skipping junction primers with 3′ portions as short as six nucleotides, as we've observed, can still anneal to and detect the inclusion isoform at 55-60° C., albeit at a lower efficiency than its detection of the exclusion isoform. On the other hand, a longer 5′ portion and a shorter 3′ portion increase the possibility of the primer annealing to the exon B-exon C junction because of the sequence similarity around 5′ splice sites (FIGS. 7C-D). We therefore had to identify NMD-associated cassette exons containing a 3′ end unlike that of its upstream exon. We then screened multiple exon-skipping junction primers for one that amplified only the exclusion isoform and not the inclusion isoform. All primer pairs were tested and confirmed for their specificity, RT-qPCR efficiency and linear dynamic ranges (FIG. 10). Finally, two stably expressed housekeeping genes, Gapdh and Sdha, were used as internal controls for normalization by geometric averaging (Vandesompele et al., 2002. Genome Biol 3: RESEARCH0034).
Because our method can be used on its own can to infer NMD regulation with a low false positive rate, one of its applications is unbiased screening for changes in cellular NMD activity. We screened a small panel of widely used pharmacological inhibitors for their effects on NMD. The expression of both the NMD and non-NMD isoforms of Ptbp2, Srsf11, Tra2b, Hnrnpl and Psd-95 were simultaneously measured before and after drug treatment. When the levels of all of the NMD isoforms were altered by a chemical in the same direction, the expression of the NMD and non-NMD isoforms under the treatment and control conditions was then subjected to ANOVA analysis to determine differential regulation of the two isoforms. We were interested in drugs that affected the NMD isoforms across the board and more strongly than the non-NMD counterparts. With this criterion, we identified thapsigargin as having potent activity in blocking cellular NMD.
Neuro-2a (N2a) cells were maintained in N2a complete media consisting of L-glutamine-free Dulbecco's modified Eagle's medium (DMEM), 10% FBS and 1× GlutaMAX at 37° C. […]

core NMD factors = assay: Expression of core NMD factors after thapsigargin; type: cell-based, mouse; settings: 5 hours after thapsigargin treatment (data not shown)
From the text: Thapsigargin is a non-competitive inhibitor of the sarco/endoplasmic reticulum Ca^2+ ATPase (SERCA) (Wictome et al., 1992. Biochem J 283 (Pt 2): 525-529; Lytton et al., 1991. J Biol Chem 266: 17067-17071). Thapsigargin treatment increases intracellular Ca^2+ concentration, which stimulates various Ca^2+ dependent signaling pathways. In fact, Nickless et al. recently reported that intracellular calcium inhibited NMD after administration of thapsigargin (Nickless et al. 2014. Nat Med 20: 961-966). Thapsigargin also induces ER stress. […] The diverging mechanisms reported by these studies were both based on the traditional NMD reporter approach and gene-centric validation. We therefore investigated which of the proposed mechanisms our independent method would support.

[2] = N2a cells, 5 hours post-treatment

| SMILES | NMD repression at 0.01 μM ([1]; 0.01 μM, 5 hours) | isoform upregulation relative to maximal upregulation ([1]; 0.02 μM) | earliest time of increase of NMD isoform transcripts ([1]; 0.2 μM thapsigargin, N2a cells) [h] | increase of non-NMD isoforms of Ptbp2 and Psd-95 ([1]; 0.2 μM, at 5 hours) | non-NMD isoform levels of Srsf11, Tra2b and Hnrnpl ([1]; 0.2 μM, at 5 hours) | fraction of full NMD inhibition detectable ([1]; 1 hour post-treatment, full inhibition at 5 hours) | concentration at which repressive effect on NMD started to plateau ([1]; N2a cells) [µM] | concentration at which Xbp1s splicing and NMD repression plateaued [1, 2] | lowest concentration at which NMD inhibition was observed [1, 2] [µM] | lowest concentration inhibiting NMD [1, 2] [nM] | NMD inhibition at concentrations above 0.2 μM ([1]; above 0.2 μM (data not shown)) | NMD isoforms in siPerk-pretreated cells ([1]; thapsigargin after 48 hours siPerk) | expression of core NMD factors (core NMD factors) | concentration sufficient to revert the effect of thapsigargin on the NMD isoforms ([1]; N2a cells, thapsigargin plus GSK2606414, Psd-95, Ptbp2, Tra2b) [µM] | upregulation of the NMD isoforms in thapsigargin-treated cells ([1]; dose-dependent, 1 hour preincubation) | NMD activity in DMSO-treated cells ([1]; without thapsigargin) |
| --- | --- | --- | --- | --- | --- | --- | --- | --- | --- | --- | --- | --- | --- | --- | --- | --- |
| C/C=C(/C)C(=O)O[C@H]1C(C)=C2[C@H]([C@@H]1OC(=O)CCCCCCC)[C@@](C)(OC(C)=O)C[C@H](OC(=O)CCC)[C@@]1(O)[C@H]2OC(=O)[C@@]1(C)O [thapsigargin] | little NMD repression | about 20% | 1 | around 1.8 fold | barely changed | 20-30% | ≥ 0.2 | ≥ 0.1 | 0.02 | 20 | did not further increase NMD inhibition | none of the NMD isoforms were stimulated | no changes in their expression | – | – | – |
| Cn1cc(-c2ccc3c(c2)CCN3C(=O)Cc2cccc(C(F)(F)F)c2)c2c(N)ncnc21 [GSK2606414] | – | – | – | – | – | – | – | – | – | – | – | – | – | ≥ 0.1 | effectively reversed | did not affect |
